This note sets out measurements from PMC12040169 (PLOS Biology, 2025).

This data set is described as follows: in vitro. Conditions: human, hela cells, % viability.

Broadly, the viability is a read-out of living cells in per cent, often relative to untreated cells. Consider `NC(=O)c1cccc(-c2nccnc2NCCO)c1` [CBK088993], for which the viability at 28.5 h, 10 µM came out at 97%.

For the compound `CC(C)(C)OC(=O)NC1CCN(C(=O)CCC(=O)O)CC1` [CBK286604], the viability at 28.5 h, 10 µM worked out at 95.9%.

Turning to `O=C(O)C1CSC(c2ccc(-c3cccc(Cl)c3)o2)N1` (stereo not shown) [CBK286997], the viability at 28.5 h, 10 µM was determined as 97.5%.

For `CCCN1CC(NS(=O)(=O)c2cc(-n3cccn3)ccc2OC)CC1=O` (stereo not shown) [CBK307285], the viability at 28.5 h, 10 µM is 107%.

Consider `CCCCOC(=O)c1c(N)n(-c2ccc(C(=O)O)cc2)c2nc3ccccc3nc12` [CBK265046], for which the viability at 28.5 h, 10 µM is 94.6%.

As to `Cc1ccnc(NC(=O)C2CCCN(C(=O)OC(C)(C)C)C2)c1` (stereo not shown) [CBK305875], the viability at 28.5 h, 10 µM was 82.7%.

In the case of `O=C1COc2ccccc2C/C=C/C[C@H]2CN(C(=O)CN3CCCCCC3=O)CC[C@H]2N1` [CBK292116], the viability at 28.5 h, 10 µM was determined as 89.7%.

Take `CCN(CC)CCO/N=C1\CC2(CCCCC2)c2ccccc21` [CBK013325]: the viability at 28.5 h, 10 µM turned out to be 101%.

For `Cc1ccc(OCCn2cncc2-c2cn(C)nc2C)cc1` [CBK281626], the viability at 28.5 h, 10 µM stood at 93.7%.

`c1csc(CN2CCC(c3cc4nccnc4[nH]3)CC2)c1` [CBK281520]: the viability at 28.5 h, 10 µM was determined as 88.9%.

Consider `Cc1nc(CC(=O)N2CCC[C@@H]3[C@H]2CCCCc2ccccc2OCC(=O)N3C)cs1` [CBK292091], for which the viability at 28.5 h, 10 µM is 113%.

As to `CCOc1cccc2sc(Nc3nc4ccc(NC(C)=O)cc4s3)nc12` [CBK287474], the viability at 28.5 h, 10 µM was 90.8%.

Consider `Cc1cccnc1C(NC(=O)C1CCN(Cc2ccoc2)CC1)c1ccc(Cl)cc1` (stereo not shown) [CBK148227], for which the viability at 28.5 h, 10 µM was determined as 102%.

For the compound `Cc1noc(C)c1CCC(=O)N1CC[C@H]2NC(=O)COc3ccccc3C/C=C/C[C@H]2C1` [CBK292115], the viability at 28.5 h, 10 µM turned out to be 110%.

Turning to `N#Cc1ccccc1-c1ccc(CSc2cccs2)cc1` [CBK002638], the viability at 28.5 h, 10 µM amounted to 90.5%.

In the case of `Cc1c(C(=O)NC2CCN(c3ncccc3C#N)CC2)ccn1C` [CBK307681], the viability at 28.5 h, 10 µM came out at 103%.

As to `CC(C)Cn1cnc2c(c1=N)C(c1ccccc1)c1ccc(O)cc1O2` (stereo not shown) [CBK287864], the viability at 28.5 h, 10 µM was found to be 101%.

`CC(C)(C)OC(=O)NCCc1ccc(Nc2cc(-c3ccc4c(c3)OCO4)ncn2)cc1` [CBK090957]: the viability at 28.5 h, 10 µM was found to be 92.5%.

For `O=C1CN(C(=O)NCc2ccc(Cl)cc2)CCN1` [CBK155867], the viability at 28.5 h, 10 µM amounted to 109%.

`O=c1[nH]nc(SCCOc2c(Cl)c(Cl)c(Cl)c(Cl)c2Cl)c(=O)[nH]1` [CBK262794]: the viability at 28.5 h, 10 µM came to 91%.

Take `Cn1c(=O)oc2cc(S(=O)(=O)N3CCN(C4CCCCC4)CC3)ccc21` [CBK268865]: the viability at 28.5 h, 10 µM is 107%.

In the case of `CC(C)C1OC(N2CCOCC2)=NC1=O` (stereo not shown) [CBK070384], the viability at 28.5 h, 10 µM worked out at 92.3%.

Take `N#Cc1cccc(C(=O)N2CCCC3(CCN(Cc4ccccc4)C3)C2)c1` (stereo not shown) [CBK136893]: the viability at 28.5 h, 10 µM turned out to be 92%.

As to `COc1ccc(Cc2nc(CC3CCCOC3)n(CC(F)(F)F)n2)cc1` (stereo not shown) [CBK307140], the viability at 28.5 h, 10 µM turned out to be 112%.

In the case of `Cc1nc(-c2ccc(N3CC(C(N)=O)CCC3C)nc2)[nH]c(=O)c1C` (stereo not shown) [CBK306463], the viability at 28.5 h, 10 µM worked out at 83.9%.

For `Cc1cc(Cl)ccc1CNS(=O)(=O)c1cccs1` [CBK044714], the viability at 28.5 h, 10 µM was determined as 97%.

As for `c1ccc(CNC2(Cc3cc(-c4ccccn4)on3)COC2)cc1` [CBK289643], the viability at 28.5 h, 10 µM was found to be 87.9%.

`O=c1c2ccccc2nc(SCc2cccc3nsnc23)n1-c1ccccc1` [CBK266076]: the viability at 28.5 h, 10 µM stood at 82.1%.

In the case of `COc1ccnc2c1c(=O)n(Cc1ccc(Cl)cc1)c(=O)n2C` [CBK287645], the viability at 28.5 h, 10 µM is 66.9%.

Regarding `CCCOCCCn1ccc2nc(OC)c(C#N)cc2c1=O` [CBK307162], the viability at 28.5 h, 10 µM is 88%.

On to `C[C@@H]1[C@H](c2ccccc2)OC(=O)N1C1CCN(S(=O)(=O)c2cccs2)CC1` [CBK043302], for which the viability at 28.5 h, 10 µM stood at 93.9%.

In the case of `Cc1ccccc1N1CC(C(=O)Nc2cccnc2)CC1=O` (stereo not shown) [CBK288138], the viability at 28.5 h, 10 µM is 88.3%.

In the case of `O=C1c2ccc3c4c(ccc(c24)C(=O)N1c1ccncc1)C(=O)N(c1ccncc1)C3=O` [CBK261390], the viability at 28.5 h, 10 µM came out at 95.4%.

As for `c1ccc2c(c1)OCC(COc1nccnc1OC1CCNCC1)O2` (stereo not shown) [CBK070766T], the viability at 28.5 h, 10 µM worked out at 102%.

On to `c1ccc(CC2CCN(CCc3c[nH]c4ccccc34)CC2)cc1` [CBK126385], for which the viability at 28.5 h, 10 µM was determined as 94.9%.

With `COc1ccccc1NS(=O)(=O)c1cc(S(=O)(=O)Nc2ccccc2OC)c(C)cc1C` [CBK261493], the viability at 28.5 h, 10 µM is 92%.

Turning to `Cc1cc(C(F)F)nn1CC(=O)N1CCc2ncc(Cl)cc2C1` [CBK284853], the viability at 28.5 h, 10 µM was found to be 108%.

Consider `CC(C)(C)C(Cn1cccn1)NC(=O)CCC(=O)O` (stereo not shown) [CBK286897], for which the viability at 28.5 h, 10 µM amounted to 81.3%.

For the compound `CCOc1ccc(-n2nnnc2SCC(=O)c2ccc(Cl)c(Cl)c2)cc1` [CBK141942], the viability at 28.5 h, 10 µM is 88.7%.

As to `Fc1ccc(COc2cccc(CNCc3ccccn3)c2)cc1` [CBK269987C], the viability at 28.5 h, 10 µM was found to be 109%.

Consider `O=C(Nc1ccc2oc(-c3cccnc3)nc2c1)c1cccc(OCc2ccccc2)c1` [CBK263420], for which the viability at 28.5 h, 10 µM turned out to be 94.4%.

Turning to `COc1ccc(C)cc1-n1ccc(C(=O)NC(C)(C)C(N)=O)n1` [CBK305789], the viability at 28.5 h, 10 µM turned out to be 94.1%.

Consider `O=C(CSc1ncnc2sc3c(c12)CCC3)Nc1nsc(-c2ccc(Cl)cc2)n1` [CBK266484], for which the viability at 28.5 h, 10 µM turned out to be 118%.

Regarding `COc1ccc2c3c([nH]c2c1)C(C)N(CCC(=O)NN)CC3` (stereo not shown) [CBK261726], the viability at 28.5 h, 10 µM came out at 93.2%.

As to `COC(=O)CCc1ccc(S(=O)(=O)N2CCCN(Cc3cccc(C(F)(F)F)c3)CC2)cc1` [CBK062983], the viability at 28.5 h, 10 µM was 100%.

`CCc1ccc(CNC(=O)Cn2nnc(-c3ccc(CNCCc4ccc(OC)c(OC)c4)cc3)n2)cc1` [CBK155008T]: the viability at 28.5 h, 10 µM was determined as 77.2%.

As for `CN1C(=O)COc2ccccc2C/C=C/C[C@@H]2[C@H]1CCCN2S(=O)(=O)N1CCOCC1` [CBK292063], the viability at 28.5 h, 10 µM was found to be 90.6%.

As to `Cc1ccc(C)c(NC(=O)c2cnc3sccn3c2=O)c1` [CBK287451], the viability at 28.5 h, 10 µM amounted to 85.1%.

Take `CC1(C)Cc2c(cnn2-c2ccc(F)cc2)C(NS(C)(=O)=O)C1` (stereo not shown) [CBK307403]: the viability at 28.5 h, 10 µM was determined as 92.3%.

Turning to `O=C(COc1ccccc1[N+](=O)[O-])Nc1nc2c(s1)CCC2` [CBK296663], the viability at 28.5 h, 10 µM came out at 85.1%.

Take `COc1ccc(OC)c(-c2ccc(NC(=O)c3ccc(Cl)cc3Cl)c(C(=O)O)c2)c1` [CBK000393D]: the viability at 28.5 h, 10 µM turned out to be 90.8%.

Regarding `COc1ccc([C@H]2CN(Cc3ccccc3)[C@@H]3CCN(C(=O)c4ccccc4F)C[C@H]23)cc1` [CBK285542], the viability at 28.5 h, 10 µM stood at 91.1%.

On to `CCCCOC(=O)c1ccccc1NC(=O)NCCc1cccs1` [CBK043573], for which the viability at 28.5 h, 10 µM is 93.5%.

With `Cc1ccc(-n2ncc3c(=O)n(Cc4ccccc4C)cnc32)c(C)c1` [CBK287695], the viability at 28.5 h, 10 µM was found to be 107%.

`C#CC1(NC(=O)NS(=O)(=O)c2ccc(C)cc2)CCCCC1` [CBK028805]: the viability at 28.5 h, 10 µM was 96.9%.

Regarding `COc1ccc2c(c1)C1(CC(=O)N(Cc3ccccc3)C1=O)C(=O)N2Cc1ccccc1` (stereo not shown) [CBK075228], the viability at 28.5 h, 10 µM amounted to 106%.

Turning to `COC(=O)CCn1c(-c2ccncc2)cc2cccnc21` [CBK282592], the viability at 28.5 h, 10 µM came out at 65.2%.

`COc1cc(CNc2nc[nH]n2)ccc1OCc1ccc(C)cc1` [CBK269768]: the viability at 28.5 h, 10 µM came to 113%.

For `CC(O)(CC#N)c1ccccc1` (stereo not shown) [CBK028508], the viability at 28.5 h, 10 µM was 114%.

On to `O=c1[nH]c(-c2cc(Cc3ccccc3Cl)ccc2O)nc2ccccc12` [CBK291220], for which the viability at 28.5 h, 10 µM came to 98.3%.

In the case of `NCC(=O)Nc1ccc(Br)cc1C(=O)c1ccccc1Cl` [CBK264692B], the viability at 28.5 h, 10 µM is 90.5%.

As for `COc1ccc(F)c(CN(CC2CCNCC2)C(=O)Nc2ccccc2C(F)(F)F)c1` [CBK049805], the viability at 28.5 h, 10 µM stood at 96.9%.

As for `CN(C)CCNCc1ccccc1OC1CCCC1` [CBK278214C], the viability at 28.5 h, 10 µM came out at 111%.

On to `CCc1nn(C)cc1CN1CCOC(c2nc(C(C)(C)C)cs2)C1` (stereo not shown) [CBK304513], for which the viability at 28.5 h, 10 µM was found to be 104%.

`C(=N\Nc1nnnn1-c1ccccc1)/c1ccco1` [CBK007334]: the viability at 28.5 h, 10 µM was determined as 109%.

On to `COc1ccc(-n2nc3cc(C)c(NC(=S)NC(=O)c4oc5ccccc5c4C)cc3n2)cc1` [CBK264188], for which the viability at 28.5 h, 10 µM was 103%.

As to `COc1ccc(NC(=O)c2cc3nc(C)ccc3o2)cc1` [CBK287663], the viability at 28.5 h, 10 µM worked out at 102%.

For `COc1ccc(Oc2nccnc2N2CCN(CCOc3ccccc3)CC2)cc1OC` [CBK083061T], the viability at 28.5 h, 10 µM amounted to 86.3%.

For the compound `COc1ccc(S(=O)(=O)Nc2cccc(C(=O)O)c2)cc1C(=O)O` [CBK264069], the viability at 28.5 h, 10 µM was 86.8%.

Take `COc1ccc(CCNCc2cccc(Cl)c2)cc1` [CBK058787]: under “bulk resorufin, single well”, the viability at 28.5 h, 10 µM amounted to 90%.

Regarding `CC(=O)N(C)c1nc(-c2cccc(N(C)C)c2)ccc1C(=O)N(C)C` [CBK076555], the viability at 28.5 h, 10 µM was found to be 92.3%.

As for `CCCCc1ccc(-c2cnc3ncccc3c2N)cc1` [CBK083683], the viability at 28.5 h, 10 µM was found to be 96.2%.

Regarding `Cc1cc(C)nc(Nc2n[nH]c(-c3ccccc3Cl)n2)n1` [CBK288167], the viability at 28.5 h, 10 µM came out at 98.2%.

With `O=C1CCC(=O)N1CCOc1nccnc1OC1CCNCC1` [CBK075084T], the viability at 28.5 h, 10 µM was found to be 101%.

`O=C(NC1(C#Cc2cnc3ccccc3c2)CCCCC1)C1CCCO1` (stereo not shown) [CBK283085]: the viability at 28.5 h, 10 µM amounted to 81.9%.

Turning to `Cc1ccc(-c2cnc3ccccc3n2)cc1NC(=O)c1ccccc1S(=O)(=O)c1ccc([N+](=O)[O-])cc1` [CBK267690], the viability at 28.5 h, 10 µM was found to be 110%.

For `O=C(Cc1nc2ccccc2[nH]1)N1CCOCC1` [CBK019505], the viability at 28.5 h, 10 µM was 93.7%.

As to `O=C(Nc1ccc(F)cc1)N1C2CCC1CC(O)(c1cccnc1)C2` (stereo not shown) [CBK281946], the viability at 28.5 h, 10 µM was 89.9%.

As to `Cn1nc(-c2ccc(S(=O)(=O)Nc3nc(=O)[nH]cc3F)s2)cc1C(F)(F)F` [CBK067574], the viability at 28.5 h, 10 µM worked out at 96.8%.
